{
  "source": "patent US20050203013A1",
  "about": "“Methods for inhibiting vascular permeability” (priority 2002, published 2005)",
  "key": {"[1]": {"tested_on": "Bovine capillary endothelial cells (BCE)", "test": "Immunostaining of tight junction proteins in BCE, endostatin", "format": "cell-based", "procedure": "Bovine capillary endothelial cells (BCE) were cultured in the presence of 0.2, 0.5 and 2 μg/ml human endostatin for three days. The cells were fixed and immunostained with anti-β-catenin, occludin, and ZO-1 antibodies (Zymed Laboratories, CA). The staining was developed using FITC-conjugated secondary antibodies and visualized under fluorescent microscopy. Immunostaining for β-catenin marked the cell borders and was more intense when two cells contacted each other. […] There was no difference in β-catenin staining between 0.5 and 2.0 μg/ml endostatin. […] Similar results were obtained with ZO-1 immunostaining. […] This is the first documentation of the effects of endostatin on tight junctions that may explain, in part, the mechanism of its antiangiogenic activities. Similar experiments were performed in which BCE were incubated in the presence and absence of 0.5 μg/ml endostatin for 3 days followed by stimulation with PAF for 20 minutes. The cells were fixed and immunostained with anti-α-catenin, occludin, and ZO-1 antibodies (Zymed Laboratories, CA), as described above."}, "[2]": {"tested_on": "skin capillary permeability", "test": "Evans Blue skin permeability assay, intradermal PAF, endostatin-treated mice", "format": "in vivo", "conditions": "Nude mice", "procedure": "(§1) The antiangiogenic factor (endostatin) was injected intraperitoneally to FVB/NJ mice for 4 days. Immediately after the last injection, mice were anasthesized and received intravenous injection of 100 μl Evans Blue dye (1% in PBS). Subsequently, different amounts of VEGF165, VEGF121 or saline were injected intradermaly. After 20 minutes, mice were sacrificed and skin flap from the back was removed and photographed. Skin samples from the injection sites were excised and incubated in formamide for 5 days in order to extract the dye and O.D. was measured at 620 nm. […] Quantitative analysis of Evans Blue dye extravasation (FIG. 1) confirmed the lower skin capillary permeability of the antiangiogenic factor-treated mice and indicated the weak permeability-inducing effect of VEGF in these mice.\nIn order to test if the effects of the antiangiogenic factor (endostatin) on vascular permeability is VEGF-specific, we have tested the effects of intradermal injection of platelet-activating factor (PAF) in Nude mice that were previously injected with the antiangiogenic factor and in control mice, as described above. […] Quantitative analysis of Evans Blue dye extravasation (FIG. 2) confirmed the lower skin capillary permeability of the antiangiogenic factor-treated mice compared with control and the lack of PAF-induced hyperpermeability in these mice. […]"}, "lung tissue": {"tested_on": "lung tissue", "test": "Swelling of lung tissue induced by micro-encapsulated VEGF-producing cells", "format": "in vivo, Mice", "conditions": "VEGF producing cells together with endostatin producing cells, 0.5x10^6 encapsulated cells of each", "text": "Dilation of the lung tissue may result in lung dysfunction and development of pulmonary hypertension. Mice injected with micro-encapsulated cells producing VEGF (approximately 0.5×10^6 cells per mouse) developed thickened lung parenchyma 5 days after injection. At a higher magnification we observed generation of several cell layers between the alveoli compared with one layer of cells in mice injected with micro-encapsulated control cells or with micro-encapsulated cells producing endostatin (Endost). […] Moreover, treatment with endostatin reduced the number of cell layers between the alveoli and the lungs of mice that were treated with endostatin appeared similar to control mice. Therefore, endostatin appears to block the swelling of lung tissue and may be used for treatment of pulmonary hypertension."}, "[3]": {"tested_on": "Bovine capillary endothelial cells (BCE)", "test": "In vitro diffusion of FITC-dextran through endothelial cell monolayer (Transwells)", "format": "cell-based", "procedure": "The effects of the antiangiogenic factor (endostatin) on skin vessel permeability in vivo were tested in an in vitro diffusion model designed to mimic blood vessel permeability. Bovine capillary endothelial cells (BCE) were seeded in collagen coated inserts of “Transwells” and grown to confluence. The antiangiogenic factor was added every 24 hours. Four days later the inserts were washed with BCE culture medium and the following tracers and permeability regulators were added to the inserts. Half of the inserts received 5 mg/ml FITC-labeled dextran 10 kDa and the other half received 5 mg/ml FITC-labeled dextran 70 kDa. In addition, some inserts received 50 ng/ml VEGF165 or 100 nM PAF. Control inserts received BCE culture medium with fluorescent tracers only. The fluorescence in the lower wells was measured after 10, 20, 30, 45 and 60 minutes by transferring the inserts into new wells.\nIn order to follow the kinetic of the diffusion process, the flow of the tracer was calculated as fluorescent counts per minute (FIGS. 5 and 6). […] In contrast, the flow in control cells was constant and was lower than that observed in PAF and VEGF165-treated cells."}, "[4]": {"tested_on": "skin capillary permeability", "test": "Evans Blue skin permeability assay, intradermal VEGF, endostatin-treated mice", "format": "in vivo", "conditions": "FVB/NJ mice, i.p. for 4 days", "procedure": "as §1"}, "skin vessel permeability [5]": {"tested_on": "skin vessel permeability", "test": "Duration of exposure: Alzet pump endostatin, skin vessel permeability", "format": "in vivo, mice (SCID)", "procedure": "In order to test if continuous exposure to the antiangiogenic factor (endostatin) is required to repress blood vessel permeability, mice (SCID) were anesthetized and “Alzet” pumps loaded with the antiangiogenic factor or saline were implanted intraperitoneally. The pumps release 1 μl the antiangiogenic factor per hour. Skin vessel permeability using Evans Blue dye was performed as described above. Saline and the antiangiogenic factor treated mice were examined 2, 3 and 4 days after pump implantation, as described above (FIG. 3). […] In both groups, PAF injection induced higher vessel permeability than saline injection. […] However, in both groups PAF injection induced higher vessel permeability than saline injection. […] Since the tumor vessels are continuously permeabilized and plasma proteins contained within the tumor support its vascularization the anti-permeability effect of the antiangiogenic factor offers a possible mechanism for its anti-tumor activity."}, "[6]": {"tested_on": "histamine-induced local edema", "test": "Histamine-induced wheal and flare test", "format": "in vivo", "conditions": "humans receiving the factor", "procedure": "Antiangiogenic treatment has entered into clinical trials recently. Molecules that are tested in phase 1 and 2 clinical trials include endostatin, angiostatin, TNP-470, thalidomide, anti-VEGF antibodies, PTK787, SU-5416, SU-6668 and others. […] Mice that received endostatin for several days had lower diffusion of Evans blue from the skin capillaries in response to intradermal VEGF and PAF injection compared with normal mice. The existing test of histamine-induced wheal and flare in skin can be used in order to test bioactivity of endostatin and other antiangiogenic factors. Intradermal injection of histamine leads to the formation of local adema ([…]) due to blood vessel hyperpermiability. […] This test will serve as an early surrogate marker for the bioactivity of endostatin and other antiangiogenic factors and help to determine the treatment's efficiency in individual patients."}, "[7]": {"tested_on": "U87 glioblastoma tumor blood vessel permeability", "test": "Miles assay on tumor-bearing mice (Example 3), U87", "design": "species or system SCID mice", "conditions": "mouse, in vivo", "procedure": "Female SCID mice ( 8 weeks, 20 g) were inoculated s.c. with 5×10^6 viable U87 glioblastoma cells or viable A2058 human melanoma cells or BXPC3 pancreas adenocarcinoma cells. Female nu/nu mice were inoculated with MCF-7 or MDA-MB-231 breast carcinoma cells in the mammary fat pad. C57B1/6J were inoculated with LLC. […] blue dye was then injected i.v. and extravasation of dye assessed as above. Also, blood was withdrawn to measure VPF/VEGF levels in plasma and in tumors (n=5 from each group). Tumors (n=5 per group) were dissected, weighed and cut in half. Half of the tumor was placed in formalin and half was analyzed for VPF/VEGF protein by ELISA (see below). Formalin fixed tumors were processed for sectioning and staining with H & E, CD31, smooth muscle actin (SMA) and proliferating cell nuclear antigen (PCNA) according to the manufacturers' instructions."}, "skin vessel permeability [8]": {"tested_on": "skin vessel permeability", "test": "Miles vascular permeability assay (Example 3)", "format": "in vivo, SCID mice", "procedure": "SCID mice were injected subcutaneously (s.c.) with TNP-470 or HPMA copolymer-TNP-470 (30 mg/Kg TNP-equiv.) for three days, with Y27632 (50 nM s.c.) for 11 days, with angiostatin (200 mg/kg/day s.c.) for five days, or with saline (250 μl s.c.) for 5 days (n=12) prior to performing the Miles assay ([…] et al., 1996; Miles and Miles, 1952; Streit et al., 2000). Briefly, Evan's blue dye (100 μl of a 1% solution in 0.9% NaCl) was injected intravenously (i.v.) into mice. After 10 minutes, 50 μl of human VEGF165 (1 ng/μl), PAF (100 μM), CNF-1 (100 ng), histamine (1.2 μg/ml) or PBS (50 ul) were injected intradermally into the pre-shaved back skin. After 20 minutes, the animals were euthanized and an area of skin that included the blue spot resulting from leakage of the dye was removed. Evan's blue dye was extracted from the skin by incubation with formamide for 5 days at room temperature, and the absorbance of extracted dye was measured at 620 nm using a spectrophotometer. The unpaired Student t test was used for statistical analysis."}, "[9]": {"tested_on": "VEGF induced vessel permeability", "test": "Miles assay (Example 2), VEGF165 challenge", "format": "in vivo, mice", "procedure": "One of the problems with angiogenesis-dependent diseases is increased vessel permeability (due to high levels of VPF) which results in edema and loss of proteins. A decrease in vessel permeability is beneficial in those diseases. […] Briefly, a dye, Evans Blue (1% in PBS), was injected i.v. to anesthesized mice. After 10 min, human recombinant VEGF165 (50 ng/50 μl) was injected intradermally into the back skin. Leakage of protein-bound dye was detected as blue spots on the underside of the back skin surrounding the injection site. After 20 min mice were euthanized. Then, the skin was excised, left in formamide for 5 days to be extracted and the solution read at 620 nm. Putative angiogenesis inhibitors such as free and conjugated TNP-470 were injected daily 3 days (30 mg/kg/day) prior to the VEGF challenge. The same was repeated on tumor-bearing mice to evaluate the effect of angiogenesis inhibitors on tumor vessel permeability."}},
  "data": [
    {"compound": "endostatin", "values": [
      {"measurement": "cell boundary β-catenin staining", "setting": "[1]; 0.2 μg/ml, three days", "result": "intensified"},
      {"measurement": "PAF reduction of staining intensity of anti-α-catenin, occludin and ZO-1", "setting": "[1]; 0.5 μg/ml for 3 days, then PAF for 20 minutes", "result": "not in endostatin-treated cells"},
      {"measurement": "cell boundary β-catenin staining", "setting": "[1]; 0.5 μg/ml, three days", "result": "further intensified"},
      {"measurement": "ZO-1 immunostaining", "setting": "[1]; 0.2-2.0 μg/ml, three days", "result": "Cells boundaries were only visible"},
      {"measurement": "occludin immunostaining", "setting": "[1]; 0.5 and 2.0 μg/ml, three days", "result": "cell boundaries were observed"},
      {"measurement": "PAF-induced vascular permeability", "setting": "[2]", "result": "repressed"},
      {"measurement": "lung tissue appearance (cell layers, extracellular matrix)", "setting": "lung tissue", "result": "fewer cell layers and no accumulation of extracellular matrix"},
      {"measurement": "flow of the tracer (fluorescent counts per minute)", "setting": "[3]; 10 kDa and 70 kDa dextrans", "result": "significant reduced flow"},
      {"measurement": "sum of fluorescent count over 60 minutes", "setting": "[3]; BCE monolayer pre-treated 4 days, FITC-dextran 10 kDa and 70 kDa, vs control, VEGF165- and PAF-treated cells", "result": "significantly lower fluorescent counts"},
      {"measurement": "VEGF-induced hyperpermeability (Evans Blue extravasation)", "setting": "[4]; intradermal VEGF165/VEGF121", "result": "minor induction of hyperpermeability"},
      {"measurement": "Evans Blue dye leakage from skin capillaries", "setting": "[4]; vs control mice", "result": "overall lower dye leakage than the control"},
      {"measurement": "duration of treatment required to reduce skin vessel permeability", "setting": "skin vessel permeability [5]; SCID mice, intraperitoneal Alzet pump", "result": "at least 3 days"},
      {"measurement": "blood vessel permeability in response to PAF injection vs saline treated mice", "setting": "skin vessel permeability [5]; day two after pump implantation", "result": "no significant difference"},
      {"measurement": "zone of edema after intradermal histamine", "setting": "[6]", "result": "reduced zone of edema"}
    ]},
    {"compound": "angiostatin", "values": [
      {"measurement": "Evan's blue extravasation into U87 glioblastomas", "setting": "[7]", "result": "did not inhibit"},
      {"measurement": "decrease of PAF-induced permeability", "setting": "skin vessel permeability [8]; PAF intradermal", "result": 37, "unit": "%"},
      {"measurement": "inhibition of Evan's blue dye extravasation from VPF/VEGF injection sites", "setting": "skin vessel permeability [8]; VPF/VEGF intradermal", "result": 40, "unit": "%"},
      {"measurement": "decrease of histamine-induced permeability", "setting": "skin vessel permeability [8]; histamine intradermal", "result": 51, "unit": "%"}
    ]},
    {"compound": "C[C@@H](N)[C@H]1CC[C@H](C(=O)Nc2ccncc2)CC1", "note": "[Y27632]", "values": [
      {"measurement": "CNF-1-induced Evan's blue-albumin extravasation", "setting": "skin vessel permeability [8]; CNF-1 intradermal", "result": "inhibited"},
      {"measurement": "effect on VPF/VEGF-induced vessel permeability", "setting": "skin vessel permeability [8]; VPF/VEGF intradermal", "result": "inhibited"}
    ]},
    {"compound": "O=C1CCC(N2C(=O)c3ccccc3C2=O)C(=O)N1", "note": "(stereo not shown) [Thalidomide]", "values": [
      {"measurement": "effect on VEGF induced vessel permeability", "setting": "[9]", "result": "no effect"},
      {"measurement": "effect on VPF/VEGF-induced vessel permeability", "setting": "skin vessel permeability [8]; VPF/VEGF intradermal", "result": "no significant effect"}
    ]}
  ]
}
